Where “and” joins values, the source holds several entries; their conditions need not be identical. Identical values can stand only once.
Legend:
viable left ventricle = assay: left ventricular viability after myocardial infarction, imaging agent 1 versus FDG; type: in vivo, rat
Method: MI was induced in rats by 30 minutes of\ coronary occlusion followed reperfusion. […] Viable left ventricle was quantified in images as the volume with ≥50% of maximum activity.

healthy adults = assay: whole-organ biodistribution and residence times by whole-body PET; type: in vivo, human; conditions: for Mean Percent Administered Dose, Brain / Mean Percent Administered Dose, GI Stomach Wall / Mean Percent Administered Dose, Heart Wall / Mean Percent Administered Dose, Kidneys / Mean Percent Administered Dose, Liver / Mean Percent Administered Dose, Marrow (lumbar) / Mean Percent Administered Dose, Salivary / Mean Percent Administered Dose, Spleen / Mean Percent Administered Dose, Thyroid / Mean Percent Administered Dose, Urinary Bladder / Mean Percent Administered Dose, Whole Body: N = 12, decay corrected
Method: Whole-body PET imaging from head to mid thigh was performed at protocol-specified time-windows.
The attenuation corrected transverse image data slice planes were combined into a single three-dimensional image matrix for each subject and each time point using custom software. These images were then divided into 6 image sets (“anterior”, “posterior”, “salivary”, “thyroid”, “source”, and “full”) of combined coronal plane image data for each subject at each time point, grouping organs with similar anterior to posterior depths. This was done to optimize the ROI creation, and minimize background contribution to the organs contained in each combined coronal plane image. The “anterior” images contained stomach wall, heart wall, and urinary bladder. The “posterior” images contained kidneys, lumbar spine, and spleen (when visible). The “salivary” images contained the salivary glands (parotid and submandibular). The “thyroid” images contained the thyroid. The “full” images combined all of the coronal image planes that contained subject image data and was used for quantification of the brain and liver. The “source” images contained the calibration source.
Absolute radioactivity was determined by normalizing ROI sums by a calibration factor derived from the calibration source. Region counts were also adjusted for activity containing underlying and overlying tissue that was not part of the organ or tissue being quantified by utilization of background regions of interest. Total body region counts were also corrected for off body background counts. Appropriate normalization of region sizes for organ and adjacent regions were made. Unobstructed regions of organs with significant overlap from other activity containing organs were also employed where necessary. In order to estimate the activity in the lower legs (which were not imaged), a region of interest on the upper thigh was utilized. Activities were also normalized where necessary to account for 100% of the injected activity, and to insure conservative (slight over-estimates) determination of absorbed dose.
Kinetic data for brain, heart wall, kidneys, liver, red marrow (lumbar spine regions were utilized), salivary glands, spleen, stomach wall, thyroid, and urinary bladder for the subjects in the study were determined using image quantification methodology. Absolute activity was converted to fractional dose by dividing by the total activity administered. Organ and tissue data were fit using non-linear least-squares regression with sums of exponentials of the form shown in Equation 1, where f and λ are the model parameters that are determined in the fitting process, Fij(t) is the fraction of the total injected activity, t is the time post injection, i is the i^th ROI, j is the j^th subject, and k is the k^th exponential term. Between one and four exponential terms were employed, as appropriate.
The regression was performed using custom software that determines initial parameter values based on the temporal variation of the kinetic data, and the use of pre-tabulated estimates for various time activity scenarios as selected by the user. […] Remainder of Body residence times were determined by subtraction of appropriate organ residence times from whole body residence times. Urinary bladder residence times were determined using the parameters determined by fitting the whole body activity data with a urinary bladder model as implemented in the OLINDA/EXM software with 3.5 hour bladder voiding interval. Red marrow residence time was determined based on a region of interest drawn on a portion of the lumbar spine. The lumbar spine was assumed to contain 16.1% (International Commission on Radiological Protection (ICRP) Publication 23, Report of the Task Group on Reference Man. Pergamon Press. 1975, page 125) of the total red marrow.

[1] = N = 12, Void Interval = 3.5 hours
[2] = whole body coronal images, representative subject

CC(C)(C)n1ncc(OCc2ccc(COCC[18F])cc2)c(Cl)c1=O [imaging agent 1, 2-t-butyl-4-chloro-5-[4-(2-(^18F)fluoroethoxymethyl)-benzyloxy]-2H-pyridazin-3-1]
left ventricular volume (viable left ventricle; control rats before surgery): 1.17±0.04 cm3 | viable left ventricular tissue volume (viable left ventricle; early stage MI (two days post surgery)): 0.94±0.01 cm3 | viable left ventricular tissue volume (viable left ventricle; late stage MI (four weeks post surgery)): 1.18±0.04 cm3 | Mean Percent Administered Dose, Brain (healthy adults; 0.17 hr post-dose): 8.3% | Mean Percent Administered Dose, GI Stomach Wall (healthy adults; 0.17 hr post-dose): 2.5% | Mean Percent Administered Dose, Heart Wall (healthy adults; 0.17 hr post-dose): 3.1% | Mean Percent Administered Dose, Kidneys (healthy adults; 0.17 hr post-dose): 9.4% | Mean Percent Administered Dose, Liver (healthy adults; 0.17 hr post-dose): 19.1% | Mean Percent Administered Dose, Marrow (lumbar) (healthy adults; 0.17 hr post-dose): 0.3% | Mean Percent Administered Dose, Salivary (healthy adults; 0.17 hr post-dose): 0.6% | Mean Percent Administered Dose, Spleen (healthy adults; 0.17 hr post-dose): 0.9% | Mean Percent Administered Dose, Thyroid (healthy adults; 0.17 hr post-dose): 0.1% | Mean Percent Administered Dose, Urinary Bladder (healthy adults; 0.17 hr post-dose): 0.3% | Mean Percent Administered Dose, Whole Body (healthy adults; 0.17 hr post-dose): 100.0% | Mean Percent Administered Dose, Brain (healthy adults; 0.50 hr post-dose): 7.9% | Mean Percent Administered Dose, GI Stomach Wall (healthy adults; 0.50 hr post-dose): 2.4% | Mean Percent Administered Dose, Heart Wall (healthy adults; 0.50 hr post-dose): 3.2% | Mean Percent Administered Dose, Kidneys (healthy adults; 0.50 hr post-dose): 6.5% | Mean Percent Administered Dose, Liver (healthy adults; 0.50 hr post-dose): 18.0% | Mean Percent Administered Dose, Marrow (lumbar) (healthy adults; 0.50 hr post-dose): 0.3% | Mean Percent Administered Dose, Salivary (healthy adults; 0.50 hr post-dose): 0.7% | Mean Percent Administered Dose, Spleen (healthy adults; 0.50 hr post-dose): 0.6% | Mean Percent Administered Dose, Thyroid (healthy adults; 0.50 hr post-dose): 0.1% | Mean Percent Administered Dose, Urinary Bladder (healthy adults; 0.50 hr post-dose): 0.2% | Mean Percent Administered Dose, Whole Body (healthy adults; 0.50 hr post-dose): 99.8% | Mean Percent Administered Dose, Brain (healthy adults; 0.83 hr post-dose): 7.3% | Mean Percent Administered Dose, GI Stomach Wall (healthy adults; 0.83 hr post-dose): 2.2% | Mean Percent Administered Dose, Heart Wall (healthy adults; 0.83 hr post-dose): 3.4% | Mean Percent Administered Dose, Kidneys (healthy adults; 0.83 hr post-dose): 4.9% | Mean Percent Administered Dose, Liver (healthy adults; 0.83 hr post-dose): 16.4% | Mean Percent Administered Dose, Marrow (lumbar) (healthy adults; 0.83 hr post-dose): 0.3% | Mean Percent Administered Dose, Salivary (healthy adults; 0.83 hr post-dose): 0.6% | Mean Percent Administered Dose, Spleen (healthy adults; 0.83 hr post-dose): 0.4% | Mean Percent Administered Dose, Thyroid (healthy adults; 0.83 hr post-dose): 0.1% | Mean Percent Administered Dose, Urinary Bladder (healthy adults; 0.83 hr post-dose): 0.3% | Mean Percent Administered Dose, Whole Body (healthy adults; 0.83 hr post-dose): 99.7% | Mean Percent Administered Dose, Brain (healthy adults; 2.0 hr post-dose): 4.7% | Mean Percent Administered Dose, GI Stomach Wall (healthy adults; 2.0 hr post-dose): 0.7% | Mean Percent Administered Dose, Heart Wall (healthy adults; 2.0 hr post-dose): 2.4% | Mean Percent Administered Dose, Kidneys (healthy adults; 2.0 hr post-dose): 1.6% | Mean Percent Administered Dose, Liver (healthy adults; 2.0 hr post-dose): 7.5% | Mean Percent Administered Dose, Salivary (healthy adults; 2.0 hr post-dose): 0.5% | Mean Percent Administered Dose, Spleen (healthy adults; 2.0 hr post-dose): 0.3% | Mean Percent Administered Dose, Thyroid (healthy adults; 2.0 hr post-dose): 0.1% | Mean Percent Administered Dose, Urinary Bladder (healthy adults; 2.0 hr post-dose): 0.9% | Mean Percent Administered Dose, Whole Body (healthy adults; 2.0 hr post-dose): 98.2% | Mean Percent Administered Dose, Brain (healthy adults; 2.5 hr post-dose): 4.1% | Mean Percent Administered Dose, GI Stomach Wall (healthy adults; 2.5 hr post-dose): 0.7% | Mean Percent Administered Dose, Heart Wall (healthy adults; 2.5 hr post-dose): 2.5% | Mean Percent Administered Dose, Kidneys (healthy adults; 2.5 hr post-dose): 1.6% | Mean Percent Administered Dose, Liver (healthy adults; 2.5 hr post-dose): 7.0% | Mean Percent Administered Dose, Salivary (healthy adults; 2.5 hr post-dose): 0.5% | Mean Percent Administered Dose, Spleen (healthy adults; 2.5 hr post-dose): 0.3% | Mean Percent Administered Dose, Thyroid (healthy adults; 2.5 hr post-dose): 0.1% | Mean Percent Administered Dose, Urinary Bladder (healthy adults; 2.5 hr post-dose): 1.1% | Mean Percent Administered Dose, Whole Body (healthy adults; 2.5 hr post-dose): 98.1% | Mean Percent Administered Dose, Brain (healthy adults; 3.83 hr post-dose): 3.2% | Mean Percent Administered Dose, GI Stomach Wall (healthy adults; 3.83 hr post-dose): 0.6% | Mean Percent Administered Dose, Heart Wall (healthy adults; 3.83 hr post-dose): 2.1% | Mean Percent Administered Dose, Kidneys (healthy adults; 3.83 hr post-dose): 1.2% | Mean Percent Administered Dose, Liver (healthy adults; 3.83 hr post-dose): 4.5% | Mean Percent Administered Dose, Salivary (healthy adults; 3.83 hr post-dose): 0.4% | Mean Percent Administered Dose, Spleen (healthy adults; 3.83 hr post-dose): 0.3% | Mean Percent Administered Dose, Thyroid (healthy adults; 3.83 hr post-dose): 0.1% | Mean Percent Administered Dose, Urinary Bladder (healthy adults; 3.83 hr post-dose): 1.4% | Mean Percent Administered Dose, Whole Body (healthy adults; 3.83 hr post-dose): 96.8% | Mean Percent Administered Dose, Brain (healthy adults; 4.5 hr post-dose): 2.9% | Mean Percent Administered Dose, GI Stomach Wall (healthy adults; 4.5 hr post-dose): 0.6% | Mean Percent Administered Dose, Heart Wall (healthy adults; 4.5 hr post-dose): 2.1% | Mean Percent Administered Dose, Kidneys (healthy adults; 4.5 hr post-dose): 1.1% | Mean Percent Administered Dose, Liver (healthy adults; 4.5 hr post-dose): 4.7% | Mean Percent Administered Dose, Salivary (healthy adults; 4.5 hr post-dose): 0.4% | Mean Percent Administered Dose, Thyroid (healthy adults; 4.5 hr post-dose): 0.1% | Mean Percent Administered Dose, Urinary Bladder (healthy adults; 4.5 hr post-dose): 1.7% | Mean Percent Administered Dose, Whole Body (healthy adults; 4.5 hr post-dose): 96.9% | mean peak uptake, brain (healthy adults; N = 12): approximately 8.3 % of the injected activity | mean peak uptake, kidneys (healthy adults; N = 12): approximately 9.4 % of the injected activity | mean peak uptake, liver (healthy adults; N = 12): approximately 19.1 % of the injected activity | Residence Time, Mean, Brain (healthy adults; [1]): 0.14 h and 0.138 h | Residence Time, Mean, GI Stomach Wall (healthy adults; [1]): 0.033 h | Residence Time, Mean, Heart Wall (healthy adults; [1]): 0.0728 h | Residence Time, Mean, Kidneys (healthy adults; [1]): 0.0952 h | Residence Time, Mean, Liver (healthy adults; [1]): 0.28 h and 0.277 h | Residence Time, Mean, Red Marrow (healthy adults; [1]): 0.0886 h | Residence Time, Mean, Remainder of Body (healthy adults; [1]): 1.8 h and 1.84 h | Residence Time, Mean, Salivary (healthy adults; [1]): 0.0148 h | Residence Time, Mean, Spleen (healthy adults; [1]): 0.0101 h | Residence Time, Mean, Thyroid (healthy adults; [1]): 0.00331 h | Residence Time, Mean, Urinary Bladder (healthy adults; [1]): 0.0265 h | high and sustained heart retention of ^18F, through time after injection (healthy adults; [2]): approximately 5 hours | time of liver clearing after injection (healthy adults; [2]): approximately 2 hours

Source: US10842892B2, “Methods and apparatus for synthesizing imaging agents, and intermediates thereof” (Lantheus Medical Imaging, Inc., priority 2010, dated 2020)
